“Also recorded” adds a separate entry of the source.
Legend:
[1] = Population PK modeling of voxelotor in patients aged 4 to 11 years (part C); type: in vivo, human; conditions: 4-11 years, n=38; for % of patients with ≥20% Hb occupancy / % Hb occupancy: weight-based dosing; for % Hb occupancy: geometric mean (% CV) in Table 3
Protocol: Population PK modeling was used to determine the whole-blood and plasma PK parameters of voxelotor in the study population. The PK parameters included maximum whole blood or plasma concentration (Cmax), area under the concentration-time curve (AUC), terminal elimination half-life (t1/2), and percent Hb occupancy.
Statistical analyses: All efficacy and safety assessments were summarized with descriptive statistics. Population PK analyses using nonlinear mixed-effects modeling were performed to characterize voxelotor PK in plasma and whole blood.

[2] = Probe-substrate DDI study: voxelotor exposure and safety in healthy subjects; type: in vivo, human
Protocol: The effect of voxelotor on the pharmacokinetics (PK) of a single dose of caffeine, warfarin sodium, omeprazole, and midazolam hydrochloride, which are probe substrates for cytochrome P450 (CYP)1A2, CYP2C9, CYP2C19, and CYP3A4, respectively, were studied in healthy subjects. During Period 1, subjects received a single dose of caffeine 100 mg, warfarin sodium 10 mg+vitamin K 10 mg, omeprazole 20 mg, and midazolam hydrochloride 2 mg on Day 1. During Period 2, subjects received voxelotor 900 mg QD on Days 1 and 2 followed by 600 mg QD on Day 3, a single dose of caffeine 100 mg, warfarin sodium 10 mg+vitamin K 10 mg, omeprazole 20 mg, and midazolam hydrochloride 2 mg on Day 4, and voxelotor 600 mg QD on Days 4 through 7.
Whole blood and plasma concentrations of voxelotor and plasma concentrations of caffeine, paraxanthine, S-warfarin, omeprazole, 5-hydroxyomeprazole, midazolam, and 1-hydroxymidazolam were determined using validated assays.

pregnant rabbits = test: Embryo-fetal development study in rabbits; type: in vivo, rabbit; conditions: oral 25, 75, 150 mg/kg/day, gestation days 7 through 19
Protocol: In embryo-fetal development studies, voxelotor was administered orally to pregnant rats at 15, 50, and 250 mg/kg/day (gestation days 7 through 17) and rabbits at 25, 75, and 150 mg/kg/day (gestation days 7 through 19) through organogenesis.

[3] = Voxelotor in milk of lactating rats; type: in vivo, rat
hemoglobin S (HbS) = hemoglobin S (HbS) (Homo sapiens, UniProt P68871+P69905, E7V); test: HbS binding and polymerization inhibition
Hb = test: Pharmacodynamics: Hb oxygen affinity (p50) and clinical measures of hemolysis; type: in vivo
QT interval = test: Cardiac electrophysiology (QT interval); type: in vivo; conditions: plasma concentrations approximately 2-fold above therapeutic concentrations
[4] = 72-week population pharmacokinetic analysis in patients with SCD; type: in vivo, human
[5] = test system: CYP3A4, CYP3A5, CYP2B6, CYP2C19, CYP2C9, UGT1A1, and UGT1A9; test: Metabolism, in vitro and in vivo studies; type: in vitro ADME
[6] = Excretion of radiolabeled voxelotor; type: in vivo
[7] = PK in subjects with renal impairment; type: in vivo, human
Protocol: Following a single 900 mg dose of voxelotor, whole blood exposures in subjects with severe renal impairment (eGFR <30 mL/min/1.73 m^2) were 25% lower compared to healthy controls.

[8] = PK in subjects with hepatic impairment; type: in vivo, human
[9] = PK in patients with HbSC genotype; type: in vivo, human
CYP2C8 = molecular target: T1, CYP2C8 (Homo sapiens, UniProt P10632); test: Effect of voxelotor on CYP450 enzymes in vivo: CYP2C8
T1 construct: endogenous in cells; host or cells: human subjects (in vivo)

CYP2D6 = molecular target: T2, CYP2D6 (Homo sapiens, UniProt P10635); test: Effect of voxelotor on CYP450 enzymes in vivo: CYP2D6
T2 construct: endogenous in cells; host or cells: human subjects (in vivo)

CYP2B6 = CYP2B6 (Homo sapiens, UniProt P20813); test: In vitro CYP enzyme study; type: in vitro ADME
BCRP = BCRP (Homo sapiens, UniProt Q9UNQ0); test: In vitro transporter study; type: in vitro ADME
OATP1B1 = OATP1B1 (Homo sapiens, UniProt Q9Y6L6); test: In vitro transporter study; type: in vitro ADME
OCT2 = OCT2 (Homo sapiens, UniProt O15244); test: In vitro transporter study; type: in vitro ADME
MATE1 = MATE1 (Homo sapiens, UniProt Q96FL8); test: In vitro transporter study; type: in vitro ADME
MATE2-K = MATE2-K (Homo sapiens, UniProt Q86VL8); test: In vitro transporter study; type: in vitro ADME
RasH2 transgenic mice = test: 26-week carcinogenicity study; type: in vivo, mouse; conditions: 26 weeks; oral 30, 150, or 500 mg/kg/day
rat = test: Rat Comet assay; conditions: in vivo

CC(C)n1nccc1-c1ncccc1COc1cccc(O)c1C=O [voxelotor, 2-hydroxy-6-((2-(1-isopropyl-1H-pyrazol-5-yl)pyridin-3-yl)methoxy)benzaldehyde]
% of patients with ≥20% Hb occupancy [1]: Approximately 76% | % of patients with ≥20% Hb occupancy ([1]; listed as Voxelotor): 76.3% | % Hb occupancy [1]: 26% | % Hb occupancy ([1]; listed as Voxelotor): 26.16 (32.2) % | Cmax ([1]; human, whole blood, oral, geometric mean (% CV), 600/900/1500 mg weight-based): 148 µg/mL | AUC(0-t) ([1]; human, whole blood, oral, geometric mean (% CV), 600/900/1500 mg weight-based, read-out: AUC0-24 h, whole blood): 3260 µg·h/mL | half-life ([1]; human, whole blood, oral, geometric mean (% CV), read-out: t1/2, whole blood (converted)): 27.2 h | safety and tolerability alone and with probe substrates [2]: safe and well tolerated | developmental outcome (pregnant rabbits): no adverse developmental effects; also recorded: no evidence of adverse developmental outcomes | presence in milk ([3]; lactating rats): detected in milk | plasma concentrations relative to concentration in milk ([3]; rats): higher | HbS polymerization (hemoglobin S (HbS)): dose-dependent inhibition | clinical measures of hemolysis (indirect bilirubin and % reticulocytes) (Hb; in vivo): dose-dependent reduction | Hb oxygen affinity as determined by change in p50 (Hb; linearly correlated with voxelotor exposure): dose-dependent increase | QT interval prolongation (QT interval): does not prolong QT interval to any clinically relevant extent | AUC0-24 h, whole blood ([4]; 1,500 mg, geometric mean): 3,830 μg · hr/mL | Cmax, whole blood ([4]; 1,500 mg, geometric mean): 180 µg/mL | differences in PK based on age (12 to 59 years), sex, body weight (28 to 135 kg), mild to severe renal impairment ([4]; human, in vivo): No clinically significant differences | Cmax ([4]; human, plasma, oral, 1500 mg, 1,500 mg, geometric mean): 14 µg/mL | half-life ([4]; human, plasma, oral, 1500 mg, 1,500 mg, geometric mean, patients with SCD, read-out: Half-life (terminal elimination), plasma (converted)): 38.7 h | AUC(0-t) ([4]; human, plasma, oral, 1500 mg, 1,500 mg, geometric mean, read-out: AUC0-24 h, plasma): 278 µg·h/mL | Vd ([4]; human, plasma, oral, read-out: apparent volume of distribution of the central compartment): 333 L | apparent volume of distribution of the peripheral compartment ([4]; plasma): 72.3 L | apparent oral clearance ([4]; plasma, patients with SCD): 6.1 L/h | exposures in whole blood and plasma, pediatric patients 4 to <17 years vs adults ([4]; recommended dosage): similar | enzymes mediating metabolism [5]: CYP3A4, CYP3A5, CYP2B6, CYP2C19, CYP2C9, UGT1A1, and UGT1A9 | dose and metabolites excreted in urine [6]: 35.5% | dose and metabolites excreted into feces [6]: approximately 62.6% | dose excreted unchanged in feces [6]: 33.3% | dose excreted unchanged in urine [6]: 0.08% | effect of renal function on excretion ([7]; human, in vivo): no clinically significant effect | unbound plasma concentrations, severe renal impairment vs healthy controls ([7]; single 900 mg dose): comparable | whole blood exposures lower in severe renal impairment vs healthy controls ([7]; single 900 mg dose, eGFR <30 mL/min/1.73 m^2): 25% | whole blood AUC higher vs normal hepatic function, mild hepatic impairment ([8]; Child Pugh A): 14% | whole blood AUC higher vs normal hepatic function, moderate hepatic impairment ([8]; Child Pugh B): 15% | whole blood AUC higher vs normal hepatic function, severe hepatic impairment ([8]; Child Pugh C): 90% | steady state whole blood AUC higher in HbSC vs HbSS genotype ([9]; HbSC n=11, HbSS n=220): 50% | steady state whole blood Cmax higher in HbSC vs HbSS genotype ([9]; HbSC n=11, HbSS n=220): 45% | steady state plasma AUC higher in HbSC vs HbSS genotype ([9]; human, in vivo): 23% | steady state plasma Cmax higher in HbSC vs HbSS genotype ([9]; human, in vivo): 15% | CYP2C8 inhibition in vivo (CYP2C8): not | CYP2D6 inhibition in vivo (CYP2D6): not | CYP2B6 induction (CYP2B6): inducer | CYP2B6 inhibition (CYP2B6): reversible and time-dependent inhibitor | BCRP inhibition (BCRP): not an inhibitor | substrate of BCRP (BCRP): not a substrate | OATP1B1 inhibition (OATP1B1): not an inhibitor | substrate of OATP1B1 (OATP1B1): not a substrate | OCT2 inhibition (OCT2): not an inhibitor | MATE1 inhibition (MATE1): not an inhibitor | MATE2-K inhibition (MATE2-K): not an inhibitor | carcinogenicity (RasH2 transgenic mice): not carcinogenic | genotoxicity, rat Comet assay (rat): not genotoxic

Reference: US20260158014A1, “METHODS OF ADMINISTERING VOXELOTOR” (Global Blood Therapeutics, Inc., priority 2021, published 2026)
